From US20260206757A1, “METHODS OF CONTROLLING UNDESIRABLE PLANTS WITH PPO HERBICIDES AND COMBINATIONS IN HERBICIDE TOLERANT CROP PLANTS” (BASF AGRO B.V., priority 2022, published 2026)

Assays:
HELAN Pacino = assay: Greenhouse experiment, crop safety of sunflower; format: in vivo, Helianthus annuus; settings: BBCH 12-14, Flumioxazin 0.5, Bifenox 168 g ai/ha, scale 0 to 100%
Method: (§1) For the post emergence treatment, the plants were first grown to the 2 to 4 leaf stage (GS 12/14). The plants were cultivated due to their individual requirements at 10-25° C. and 20-35° C. The plants were irrigated as required.
(§2) Here, the herbicidal compositions were suspended or emulsified in water as distribution medium and sprayed using finely distributing nozzles. 1% methylated seed oil (MSO) has been added as adjuvant to each of the solo and mixture treatments.
(§3) In the greenhouse experiments, the herbicidal activity for the individual herbicidal compositions (solo and mixture applications) was assessed 20/21 days after treatment (DAT).
(§4) The evaluation for the damage on undesired weeds caused by the chemical compositions was carried out using a scale from 0 to 100%, compared to the untreated control plants. Here, 0 means no damage and 100 means complete destruction of the plants.

HELAN w F(383)I = assay: Greenhouse experiment, crop safety of PPO inhibitor tolerant sunflower; format: in vivo, Helianthus annuus; settings: BBCH 12-14, Flumioxazin 0.5, Bifenox 168 g ai/ha, scale 0 to 100%
Method: as §1, §2, §3, §4

Mercuralis annua = assay: Greenhouse experiment, post emergence herbicidal activity; format: in vivo; settings: MERAN, BBCH 12-14, Saflufenacil 0.5, Bifenox 168 g ai/ha
Method: as §1, §2, §3, §4

Papaver rhoeas = assay: as above; format: in vivo; settings: PAPRH
Method: as §1, §2, §3, §4

Sonchus arvensis = assay: as above; format: in vivo; settings: SONAR, BBCH 12-14, Flumioxazin 0.5, Bifenox 168 g ai/ha
Method: as §1, §2, §3, §4

Ambrosia artemisiifolia = assay: as above; format: in vivo; settings: AMBEL, BBCH 12-14, Saflufenacil 1, Bifenox 168 g ai/ha
Method: as §1, §2, §3, §4

Chenopodium album = assay: as above; format: in vivo; settings: CHEAL, BBCH 12-14, Flumioxazin 1, Bifenox 168 g ai/ha
Method: as §1, §2, §3, §4

Abutilon theophrasti = assay: as above; format: in vivo; settings: ABUTH
Method: as §1, §2, §3, §4

Polygonum aviculare = assay: as above; format: in vivo; settings: POLAV, BBCH 12-14, Flumioxazin 4, Bifenox 168 g ai/ha
Method: as §1, §2, §3, §4

Sorghum halepense = assay: as above; format: in vivo; settings: SORHA, BBCH 12-14, Saflufenacil 4, Bifenox 168 g ai/ha
Method: as §1, §2, §3, §4

Convolvulus arvensis = assay: as above; format: in vivo; settings: CONAR, BBCH 12-14, Saflufenacil 1, Bifenox 168 g ai/ha
Method: as §1, §2, §3, §4

Portulaca oleracea = assay: as above; format: in vivo; settings: POROL, BBCH 12-14, Flumioxazin 4, Bifenox 168 g ai/ha
Method: as §1, §2, §3, §4

COC(=O)c1cc(Oc2ccc(Cl)cc2Cl)ccc1[N+](=O)[O-] [Bifenox, Methyl 5-(2,4-dichlorophenoxy)-2-nitrobenzoate]
Observed crop damage 21 days after treatment (HELAN Pacino): 15%
Observed crop damage 21 days after treatment (HELAN w F(383)I): 5%
% Herbicidal activity (Mercuralis annua): 55%
% Herbicidal activity (Papaver rhoeas; BBCH 12-14, Flumioxazin 0.5, Bifenox 168 g ai/ha): 10%
% Herbicidal activity (Papaver rhoeas; BBCH 12-14, Saflufenacil 0.5, Bifenox 168 g ai/ha): 5%
% Herbicidal activity (Sonchus arvensis): 30%
% Herbicidal activity (Ambrosia artemisiifolia): 60%
% Herbicidal activity (Chenopodium album): 20%
% Herbicidal activity (Abutilon theophrasti; BBCH 12-14, Flumioxazin 2, Bifenox 168 g ai/ha): 55%
% Herbicidal activity (Abutilon theophrasti; BBCH 12-14, Saflufenacil 1, Bifenox 168 g ai/ha): 80%
% Herbicidal activity (Polygonum aviculare): 20%
% Herbicidal activity (Sorghum halepense): 10%
% Herbicidal activity (Convolvulus arvensis): 75%
% Herbicidal activity (Portulaca oleracea): 10%
